Assay results: PMC10056986 (Pharmaceuticals, 2023)
Read-outs that look alike come from different tables or passages of the source.

Assays:
CAMK2 alpha = CAMK2 alpha (Homo sapiens, UniProt Q9UQM7); assay: biochemical
[1] = system: influenza A virus WSN/33 (H1N1); set-up: species or system BALB/c mice; conditions: mouse, in vivo
PKA = PKA (Homo sapiens, UniProt P17612); assay: biochemical
[2] = system: Influenza virus A/WSN/33 (H1N1); assay: microbe, parasite or virus in culture; assay type: cell-based; conditions: MDCK, read-out: EC50 (mean ± SD)
PDK1 = PDK1 (Homo sapiens, UniProt O15530); assay: biochemical
[3] = system: influenza A virus WSN/33 (H1N1); set-up: species or system BALB/c mice; conditions: mouse, in vivo; remark: listed apart in the source
p38 alpha = p38 alpha (Homo sapiens, UniProt Q16539); assay: biochemical
LCK = LCK (Homo sapiens, UniProt P06239); assay: biochemical
Chain of LCK (P06239 whole entry): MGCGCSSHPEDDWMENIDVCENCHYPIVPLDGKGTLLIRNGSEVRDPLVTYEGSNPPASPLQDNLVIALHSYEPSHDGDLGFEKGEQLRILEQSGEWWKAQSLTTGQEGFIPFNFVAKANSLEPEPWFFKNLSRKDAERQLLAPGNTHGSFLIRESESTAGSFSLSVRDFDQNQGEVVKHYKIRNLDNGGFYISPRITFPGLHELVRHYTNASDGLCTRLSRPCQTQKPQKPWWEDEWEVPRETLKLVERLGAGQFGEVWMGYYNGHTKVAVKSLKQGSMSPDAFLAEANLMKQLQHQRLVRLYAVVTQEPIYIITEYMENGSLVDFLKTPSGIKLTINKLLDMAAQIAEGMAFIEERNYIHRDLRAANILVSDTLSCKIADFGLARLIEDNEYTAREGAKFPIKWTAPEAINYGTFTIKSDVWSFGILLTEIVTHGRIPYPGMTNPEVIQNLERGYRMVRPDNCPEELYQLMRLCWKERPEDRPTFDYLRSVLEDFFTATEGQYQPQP

[4] = system: Influenza virus A/WS/33 (H1N1); assay: microbe, parasite or virus in culture; assay type: cell-based; conditions: H1N1, MDCK, read-out: EC50 (mean ± SD)
DYRK3 = DYRK3 (Homo sapiens, UniProt O43781); assay: biochemical
[5] = system: influenza A virus WSN/33 (H1N1); set-up: species or system BALB/c mice; conditions: mouse, in vivo; remark: listed apart in the source
A/Anhui/01/2013 (H7N9) = assay: microbe, parasite or virus in culture; assay type: cell-based, avian influenza virus; conditions: Influenza A virus, H7N9, MDCK, read-out: IC50 (mean ± SD)
EPHA2 = EPHA2 (Homo sapiens, UniProt P29317); assay: biochemical
CHK1 = CHK1 (Homo sapiens, UniProt O14757); assay: biochemical
[6] = system: Influenza virus A/California/07/2009 (H1N1)pdm09; assay: microbe, parasite or virus in culture; assay type: cell-based; conditions: H1N1, MDCK, read-out: EC50 (mean ± SD)
MAP4K4 = MAP4K4 (Homo sapiens, UniProt O95819); assay: biochemical
A/PR/8/34 (H1N1) = system: A/PR/8/34 (H1N1); set-up: species or system BALB/c mice; conditions: mouse, in vivo
[7] = system: A/Guangzhou/39715/2014 (H5N6); assay: microbe, parasite or virus in culture; assay type: cell-based, avian influenza virus; conditions: unidentified influenza virus, H5N6, MDCK, read-out: IC50 (mean ± SD)
[8] = system: influenza A virus/California/07/2009 (H1N1); set-up: species or system ferrets; conditions: in vivo, po, 25 mg/kg/day
[9] = system: Influenza virus A/California/2/2014 (H3N2); assay: microbe, parasite or virus in culture; assay type: cell-based; conditions: H3N2, MDCK, read-out: EC50 (mean ± SD)
[10] = target: influenza virus polymerase (PB1, PB2, NP, PA from A/California/04/2009 (H1N1) pdm09) (Influenza A virus, UniProt C3W5R8+C3W5R9); assay type: cell-based
[11] = system: Influenza virus A/PR/8/34 (H1N1); assay: microbe, parasite or virus in culture; assay type: cell-based; conditions: H1N1|PR/8, MDCK, read-out: EC50 (mean ± SD)
FGFR1 = FGFR1 (Homo sapiens, UniProt P11362); assay: biochemical
ABL1 = ABL1 (Homo sapiens, UniProt P00519); assay: biochemical
Chain of ABL1 (P00519 whole entry): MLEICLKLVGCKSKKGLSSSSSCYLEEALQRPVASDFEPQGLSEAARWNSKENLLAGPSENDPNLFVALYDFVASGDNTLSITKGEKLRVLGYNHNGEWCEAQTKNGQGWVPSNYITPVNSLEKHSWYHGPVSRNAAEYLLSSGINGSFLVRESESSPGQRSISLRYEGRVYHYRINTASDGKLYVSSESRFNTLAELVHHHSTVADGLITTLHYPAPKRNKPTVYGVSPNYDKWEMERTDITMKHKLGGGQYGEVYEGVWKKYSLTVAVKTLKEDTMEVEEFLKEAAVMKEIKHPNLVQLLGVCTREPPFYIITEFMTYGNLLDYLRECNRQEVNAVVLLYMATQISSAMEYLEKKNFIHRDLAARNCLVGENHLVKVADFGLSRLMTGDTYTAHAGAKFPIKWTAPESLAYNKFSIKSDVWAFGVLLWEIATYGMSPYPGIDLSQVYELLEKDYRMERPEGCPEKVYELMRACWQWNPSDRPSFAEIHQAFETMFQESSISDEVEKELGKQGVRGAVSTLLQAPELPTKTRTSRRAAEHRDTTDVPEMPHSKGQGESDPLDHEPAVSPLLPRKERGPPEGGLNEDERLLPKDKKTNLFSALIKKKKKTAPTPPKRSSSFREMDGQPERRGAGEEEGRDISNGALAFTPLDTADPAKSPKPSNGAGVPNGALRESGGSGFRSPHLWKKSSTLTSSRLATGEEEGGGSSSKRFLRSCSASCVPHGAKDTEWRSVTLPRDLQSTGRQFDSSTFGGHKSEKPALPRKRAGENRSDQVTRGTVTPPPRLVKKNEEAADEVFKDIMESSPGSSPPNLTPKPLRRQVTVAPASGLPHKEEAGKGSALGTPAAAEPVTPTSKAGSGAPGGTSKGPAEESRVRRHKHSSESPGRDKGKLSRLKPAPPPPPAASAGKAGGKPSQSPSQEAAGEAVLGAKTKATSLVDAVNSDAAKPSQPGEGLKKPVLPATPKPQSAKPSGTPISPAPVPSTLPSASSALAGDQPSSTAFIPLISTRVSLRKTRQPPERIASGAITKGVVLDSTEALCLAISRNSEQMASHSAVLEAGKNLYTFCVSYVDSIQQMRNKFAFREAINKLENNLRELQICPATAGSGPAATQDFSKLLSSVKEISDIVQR

JAK2 = JAK2 (Homo sapiens, UniProt O60674); assay: biochemical
Aurora A = Aurora A (Homo sapiens, UniProt O14965); assay: biochemical
Chain of Aurora A (O14965 whole entry): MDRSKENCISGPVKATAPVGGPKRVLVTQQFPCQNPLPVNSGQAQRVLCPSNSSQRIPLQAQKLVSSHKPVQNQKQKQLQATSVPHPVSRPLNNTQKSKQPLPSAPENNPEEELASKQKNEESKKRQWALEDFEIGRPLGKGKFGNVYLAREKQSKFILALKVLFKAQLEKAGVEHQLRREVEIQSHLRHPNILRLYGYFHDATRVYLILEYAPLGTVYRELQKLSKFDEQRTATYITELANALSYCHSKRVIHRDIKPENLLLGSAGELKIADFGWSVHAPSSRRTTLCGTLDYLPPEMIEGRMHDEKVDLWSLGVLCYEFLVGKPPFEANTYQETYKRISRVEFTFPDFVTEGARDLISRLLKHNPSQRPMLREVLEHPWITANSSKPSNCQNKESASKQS

[12] = system: Influenza virus A/Mal/302/54 (H1N1); assay: microbe, parasite or virus in culture; assay type: cell-based; conditions: H1N1, MDCK, read-out: EC50 (mean ± SD)
MST4 = MST4 (Homo sapiens, UniProt Q9P289); assay: biochemical
CDK2 = CDK2 (Homo sapiens, UniProt P24941); assay: biochemical
TNIK = TNIK (Homo sapiens, UniProt Q9UKE5); assay: biochemical
JNK1 = JNK1 (Homo sapiens, UniProt P45983); assay: biochemical
Influenza virus B/Lee/40 = assay: microbe, parasite or virus in culture; assay type: cell-based; conditions: MDCK, read-out: EC50 (mean ± SD)
MAPKAPK2 = MAPKAPK2 (Homo sapiens, UniProt P49137); assay: biochemical
Chain of MAPKAPK2 (P49137 whole entry): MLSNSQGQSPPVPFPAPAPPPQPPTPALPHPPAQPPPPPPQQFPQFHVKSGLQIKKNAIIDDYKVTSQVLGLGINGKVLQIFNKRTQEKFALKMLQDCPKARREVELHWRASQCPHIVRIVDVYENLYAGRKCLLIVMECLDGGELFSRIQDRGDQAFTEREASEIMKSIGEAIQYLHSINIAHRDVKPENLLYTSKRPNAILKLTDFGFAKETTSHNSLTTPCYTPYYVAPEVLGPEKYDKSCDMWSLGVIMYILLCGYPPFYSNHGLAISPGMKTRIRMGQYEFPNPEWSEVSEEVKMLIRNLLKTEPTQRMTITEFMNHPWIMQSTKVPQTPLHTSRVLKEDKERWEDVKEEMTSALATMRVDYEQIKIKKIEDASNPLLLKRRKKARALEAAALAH

TAOK2 = TAOK2 (Homo sapiens, UniProt Q9UL54); assay: biochemical
KDR = KDR (Homo sapiens, UniProt P35968); assay: biochemical
in vitro [13] = conditions: dog, CC50 (mean ± SD)
CK1 alpha = CK1 alpha (Homo sapiens, UniProt P48729); assay: biochemical
GSK3 beta = GSK3 beta (Homo sapiens, UniProt P49841); assay: biochemical
SRC = SRC (Homo sapiens, UniProt P12931); assay: biochemical
Chain of SRC (P12931 whole entry): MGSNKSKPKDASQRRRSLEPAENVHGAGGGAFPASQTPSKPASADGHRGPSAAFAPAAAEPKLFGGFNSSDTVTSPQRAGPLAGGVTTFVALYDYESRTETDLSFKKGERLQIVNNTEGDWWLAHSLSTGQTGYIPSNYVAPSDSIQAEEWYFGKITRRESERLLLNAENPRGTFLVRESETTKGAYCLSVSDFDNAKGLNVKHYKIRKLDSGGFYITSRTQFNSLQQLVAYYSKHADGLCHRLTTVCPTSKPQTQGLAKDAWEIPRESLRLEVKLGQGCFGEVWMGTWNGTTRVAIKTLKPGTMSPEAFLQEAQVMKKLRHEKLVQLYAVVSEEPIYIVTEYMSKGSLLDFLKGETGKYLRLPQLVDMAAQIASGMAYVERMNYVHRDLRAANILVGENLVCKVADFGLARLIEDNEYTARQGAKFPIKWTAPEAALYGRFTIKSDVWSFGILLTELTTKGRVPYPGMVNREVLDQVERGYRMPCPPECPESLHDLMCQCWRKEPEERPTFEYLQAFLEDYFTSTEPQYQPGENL

MINK = MINK (Homo sapiens, UniProt Q8N4C8); assay: biochemical
Chain of MINK (Q8N4C8 whole entry): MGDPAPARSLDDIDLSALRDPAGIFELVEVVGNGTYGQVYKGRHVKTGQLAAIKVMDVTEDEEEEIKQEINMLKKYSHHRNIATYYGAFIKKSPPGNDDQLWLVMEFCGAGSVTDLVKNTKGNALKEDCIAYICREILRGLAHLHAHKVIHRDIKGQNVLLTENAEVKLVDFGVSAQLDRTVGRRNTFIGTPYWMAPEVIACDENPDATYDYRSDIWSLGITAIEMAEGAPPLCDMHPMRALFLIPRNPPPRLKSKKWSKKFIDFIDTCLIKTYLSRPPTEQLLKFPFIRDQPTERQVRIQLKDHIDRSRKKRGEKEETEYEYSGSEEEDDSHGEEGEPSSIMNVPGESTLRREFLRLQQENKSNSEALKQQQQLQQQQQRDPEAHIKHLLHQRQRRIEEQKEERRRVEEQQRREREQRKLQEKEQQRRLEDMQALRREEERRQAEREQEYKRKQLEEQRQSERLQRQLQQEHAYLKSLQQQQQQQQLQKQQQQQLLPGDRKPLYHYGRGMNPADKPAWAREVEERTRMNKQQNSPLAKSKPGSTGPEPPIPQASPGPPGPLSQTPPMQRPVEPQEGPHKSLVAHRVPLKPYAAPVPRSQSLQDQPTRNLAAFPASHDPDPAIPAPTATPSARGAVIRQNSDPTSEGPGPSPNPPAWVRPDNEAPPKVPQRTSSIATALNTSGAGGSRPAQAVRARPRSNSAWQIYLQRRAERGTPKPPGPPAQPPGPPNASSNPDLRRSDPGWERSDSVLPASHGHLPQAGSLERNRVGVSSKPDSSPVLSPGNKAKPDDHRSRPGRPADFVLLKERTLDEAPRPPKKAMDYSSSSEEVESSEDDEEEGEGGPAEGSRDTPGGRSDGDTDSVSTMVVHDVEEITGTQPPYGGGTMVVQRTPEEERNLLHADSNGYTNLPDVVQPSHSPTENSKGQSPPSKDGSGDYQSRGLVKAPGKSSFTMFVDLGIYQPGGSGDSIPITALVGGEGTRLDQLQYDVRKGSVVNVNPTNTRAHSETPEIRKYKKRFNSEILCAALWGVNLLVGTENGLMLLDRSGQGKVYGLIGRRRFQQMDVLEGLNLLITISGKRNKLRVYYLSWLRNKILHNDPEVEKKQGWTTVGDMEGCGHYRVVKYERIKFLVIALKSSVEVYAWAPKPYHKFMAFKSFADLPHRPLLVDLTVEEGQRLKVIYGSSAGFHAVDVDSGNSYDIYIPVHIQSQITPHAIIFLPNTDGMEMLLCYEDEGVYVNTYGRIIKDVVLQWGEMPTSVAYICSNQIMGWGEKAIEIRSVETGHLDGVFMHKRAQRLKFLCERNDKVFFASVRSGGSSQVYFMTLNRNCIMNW

[14] = system: Influenza virus A/Weiss/43(H1N1); assay: microbe, parasite or virus in culture; assay type: cell-based; conditions: H1N1, MDCK, read-out: EC50 (mean ± SD)
[15] = system: A/Qingyuan/GIRD01/2017 (H7N9); assay: microbe, parasite or virus in culture; assay type: cell-based, avian influenza virus; conditions: Influenza A virus, H7N9, MDCK, read-out: IC50 (mean ± SD)
[16] = system: Influenza virus A/Hong Kong/8/68 (H3N2); assay: microbe, parasite or virus in culture; assay type: cell-based; conditions: unidentified influenza virus, H3N2, MDCK, read-out: EC50 (mean ± SD)
EV71 Shenzhen/120F1/09 = assay: microbe, parasite or virus in culture; assay type: cell-based, human enterovirus 71; conditions: Enterovirus A, EV71, RD, read-out: EC50 for Virus
[17] = Cytotoxicity in parallel to antiviral assay; conditions: human
in vitro [18] = conditions: human
HBV = assay: microbe, parasite or virus in culture; assay type: cell-based; conditions: Hepatitis B virus, HepG2.2.15, read-out: EC50 for Virus
[19] = Cytotoxicity in parallel to antiviral assay; conditions: African green monkey
HSV-1 GHSV-UL46 = assay: microbe, parasite or virus in culture; assay type: cell-based, herpes simplex virus type 1; conditions: Human alphaherpesvirus 1, Vero C1008, read-out: EC50 for Virus
[20] = Cytotoxicity in MDCK cells without viral infection; conditions: dog
MDCK cells = assay: Cytotoxicity in MDCK cells without viral infection; conditions: MDCK, 37 °C
[21] = Cytotoxicity in parallel to antiviral assay; conditions: human; remark: listed apart in the source
HRV 1B = assay: microbe, parasite or virus in culture; assay type: cell-based; conditions: Human rhinovirus sp., H1-HeLa, read-out: EC50 for Virus

Chain of CAMK2 alpha (Q9UQM7 whole entry): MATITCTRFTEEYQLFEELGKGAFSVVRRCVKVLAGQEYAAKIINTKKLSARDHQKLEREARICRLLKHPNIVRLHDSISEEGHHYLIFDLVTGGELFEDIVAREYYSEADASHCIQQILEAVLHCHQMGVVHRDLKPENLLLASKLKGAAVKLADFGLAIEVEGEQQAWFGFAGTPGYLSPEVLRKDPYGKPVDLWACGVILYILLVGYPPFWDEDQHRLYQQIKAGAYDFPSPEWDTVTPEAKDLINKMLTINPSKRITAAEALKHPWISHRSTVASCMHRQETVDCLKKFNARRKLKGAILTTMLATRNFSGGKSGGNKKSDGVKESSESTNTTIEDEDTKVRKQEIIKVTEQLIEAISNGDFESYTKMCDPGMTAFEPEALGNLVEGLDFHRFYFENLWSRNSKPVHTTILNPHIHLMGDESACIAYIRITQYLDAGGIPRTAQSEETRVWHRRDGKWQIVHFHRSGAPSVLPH

O=C(O)[C@H]1C2CCC(CC2)[C@@H]1Nc1nc(-c2c[nH]c3ncc(F)cc23)ncc1F [VX-787, reference compound]
IC50 (CAMK2 alpha): > 10 µM
day on which mice began to regain body weight [1]: 4 days
IC50 (PKA): > 10 µM
EC50 [2]: 0.000315 ± 7e-05 µM
IC50 (PDK1): > 10 µM
body weight of mice [3]: did not significantly reduce the body weight
survival rate vs vehicle [3]: could improve the survival rate
time of death relative to vehicle group [3]: died after 7 h—earlier than in the vehicle group
IC50 (p38 alpha): > 10 µM
IC50 (LCK): > 10 µM
EC50 [4]: 0.000206 ± 6.1e-05 µM
IC50 (DYRK3): > 10 µM
animals died (of n = 8) [5]: four
day on which body weight of surviving mice began to recover [5]: 8 days
day on which weight of surviving mice increased gradually [5]: 8th
mice died (of n = 8) [5]: no mice died
survival rate [5]: 100%
IC50 (A/Anhui/01/2013 (H7N9)): 0.000834 ± 0.000204 µM
IC50 (EPHA2): > 10 µM
IC50 (CHK1): > 10 µM
EC50 [6]: 0.00024 ± 0.00014 µM
IC50 (MAP4K4): 1.78 µM
mortality rate (A/PR/8/34 (H1N1)): 70%
IC50 [7]: 9.18e-05 ± 1.45e-05 µM
viral load in nasal lavage fluid vs vehicle [8]: decreased but showed no statistical significance
EC50 [9]: 0.00015 ± 2e-05 µM
IC50 ([10]; read-out: IC50, Mean ± SEM): 0.00145 ± 0.00034 µM
IC50 ([10]; read-out: IC50, experiment 1): 0.00128 µM
IC50 ([10]; read-out: IC50, experiment 2): 0.00123 µM
IC50 ([10]; read-out: IC50, experiment 3): 0.00184 µM
EC50 [11]: 0.00076 ± 0.000355 µM
IC50 (FGFR1): > 10 µM
IC50 (ABL1): > 10 µM
IC50 (JAK2): > 10 µM
IC50 (Aurora A): 1.11 µM
EC50 [12]: 0.000295 ± 0.000111 µM
IC50 (MST4): > 10 µM
IC50 (CDK2): > 10 µM
IC50 (TNIK): > 3.33 µM
IC50 (JNK1): > 10 µM
EC50 (Influenza virus B/Lee/40): > 0.01 µM
IC50 (MAPKAPK2): > 10 µM
IC50 (TAOK2): > 10 µM
IC50 (KDR): > 10 µM
CC50 (in vitro [13]): 21.1 ± 9.76 µM
IC50 (CK1 alpha): > 10 µM
IC50 (GSK3 beta): > 3.33 µM
IC50 (SRC): > 10 µM
IC50 (MINK): > 3.33 µM
EC50 [14]: 0.000255 ± 5.5e-05 µM
IC50 [15]: 0.00192 ± 0.000492 µM
EC50 [16]: 0.000162 ± 3.4e-05 µM

CCOC(=O)/C=C/[C@H](C[C@@H]1CCNC1=O)NC(=O)[C@@H](CC(=O)[C@@H](NC(=O)c1cc(C)on1)C(C)C)Cc1ccc(F)cc1 [AG7088, reference compound]
EC50 (EV71 Shenzhen/120F1/09): 0.012 µM
CC50 [17]: > 1 µM

C=C1[C@H](CO)[C@@H](O)C[C@@H]1n1cnc2c(=O)[nH]c(N)nc21 [Entecavir, reference compound]
CC50 (in vitro [18]): > 0.02 µM
EC50 (HBV): 0.000338 µM

Nc1nc2c(ncn2COCCO)c(=O)[nH]1 [Acyclovir, reference compound]
CC50 [19]: > 10 µM
EC50 (HSV-1 GHSV-UL46): 0.655 µM

CCOC(=O)C1=C[C@@H](OC(CC)CC)[C@H](NC(C)=O)[C@@H](N)C1 [Oseltamivir]
EC50 [2]: 10.1 ± 9.82 µM
body weight of mice [3]: did not significantly reduce the body weight
survival rate vs vehicle [3]: could improve the survival rate
time of death relative to vehicle group [3]: died after 7 h—earlier than in the vehicle group
EC50 [4]: 2.43 ± 1.24 µM
animals died (of n = 8) [5]: five
day on which body weight of surviving mice began to recover [5]: 9 days
day on which weight of surviving mice increased gradually [5]: 9th
mice died (of n = 8) [5]: three
CC50 [20]: > 100 µM
CC50 (MDCK cells): > 100 µM
IC50 (A/Anhui/01/2013 (H7N9)): 175 µM
mortality rate (A/PR/8/34 (H1N1)): 90%
IC50 [7]: 1650 µM
viral load in nasal lavage fluid vs vehicle [8]: decreased significantly
EC50 [11]: 4.89 ± 7.37 µM
EC50 [12]: 1.34 ± 1.92 µM
EC50 (Influenza virus B/Lee/40): 2.94 ± 3.62 µM
EC50 [14]: 5.62 ± 2.78 µM
IC50 [15]: 1690 µM

Cc1cc(CCCOc2c(C)cc(-c3noc(C(F)(F)F)n3)cc2C)on1 [Pleconaril, reference compound]
CC50 [21]: > 5 µM
EC50 (HRV 1B): 0.028 µM
